The text below walks through data of patent publication US9910031B2, “Compositions and methods for modulating c-Rel-dependent cytokine production” (Synta Pharmaceuticals Corporation, priority 2003, dated 2018).

One test concerns NFκB. Description: Gel-shift assay of NFκB binding to the IL-12 p40 promoter site, THP-1 nuclear extracts. The class given is cell-based, human. As to conditions: IFN-γ-primed, SAC-stimulated THP-1; 1 μM Compound 1 or 10 mM ASA. The procedure:
Nuclear extracts were prepared from IFN-γ-primed THP-1 cells that had been treated with or without SAC and incubated in the presence or absence of 1 μM Compound 1 or 10 mM ASA. Isolation of nuclear extracts was accomplished by first suspending THP-1 cells in 20 volumes of buffer A containing 10 mM KCl, 10 mM HEPES (pH 7.9), 1 mM MgCl2, 1 mM dithiothreitol (DTT), 0.1% Nonidet p40 (NP-40), and 0.5 mM phenylmethylsulfonyl fluoride (PMSF) and then homogenizing and centrifuging at 10,000 rpm at 4° C. for 5 min. Nuclear pellets were then suspended in buffer C containing 400 mM NaCl, 20 mM HEPES pH 7.9), 15 mM MgCl2, 0.2 mM EDTA, 1 mM DTT, 25% glycerol, 1 mM PMSF, and 10 μg of leupeptin, 20 μg of pepstatin, and 10 μg of antipain per ml, incubated for 30 min at 4° C., and centrifuge at 14,000 rpm for […]. The supernatants were dialyzed against buffer D containing 100 mM NaCl, 20 mM HEPES (pH 7.9), 20% glycerol, 1 mM PMSF, and 1 mM DTT.
The extracts obtained from this process were used in gel-shift assays using oligonucleotides containing the NFκB target sequence corresponding to the region −121 to −102 from the transcription initiation site of IL-12 p40 or a mutated NFκB binding site. […] This interaction was specific as it was competed away by an excess of unlabeled probe, but not by a mutated oligonucleotide in which two base-pairs were substituted. […]

The next test relates to IL-12 p70. Nature of the test: Inhibition of production of IL-12 p70 protein. The class given is cell-based, human. As to conditions: 1 μM Compound 1; 10 mM ASA. As for the experimental part:
Cells were co-transfected with the vector pCMV (BD Biosciences Clontech) in which the constitutively active CMV promoter directs β-galactosidase expression for the monitoring of transfection efficiency. Luciferase and β-galactosidase activity were determined in cell extracts prepared according to the Luciferase assay system (Promega) and Luminescent n-gal Detection system (BD Biosciences Clontech). Luciferase activity was then normalized using the β-galactosidase value. […] ELISA was performed by the following method. Human IL-12 p70 (heterodimer) was assayed using ELI-PAIR kit from Cell Sciences (Norwood, Mass.), according to the manufacturer's instructions. Human IL-12 p40 was assayed using ELISA kit from Cell Sciences (Norwood, Mass.) according to the manufacturer's instructions.
The extracts obtained from this process were used in gel-shift assays using oligonucleotides containing the NFκB target sequence corresponding to the region −121 to −102 from the transcription initiation site of IL-12 p40 or a mutated NFκB binding site. […] This interaction was specific as it was competed away by an excess of unlabeled probe, but not by a mutated oligonucleotide in which two base-pairs were substituted. […] This is expected since a compound that potently blocks NFkB have a far broader cytokine inhibitory profile than Compound 1/Compound 2.

As to `CC(=O)Oc1ccccc1C(=O)O` [ASA, reference compound], the “NFκB binding to p40 promoter probe (gel shift)” value with NFκB is recorded as “reduced the binding significantly”. Besides, the “percent inhibition of production of IL-12 p70 protein” value in the test on IL-12 p70 is 45%.
